test system: HeLa; assay: Cytotoxicity against human HeLa cells; assay type: functional

SMILES | GC50 [nM] | pGC50
CO/N=C(/COc1ccc2oc(-c3ccccc3)cc(=O)c2c1)c1ccc(OC)cc1 | 2000 | 5.699
CO/N=C(\C)COc1ccc2c(=O)c(-c3ccccc3)coc2c1 | 8500 | 5.071
O=c1c(OC/C(=N/O)c2ccccc2)c(-c2ccccc2)oc2ccccc12 | 1800 | 5.745
O=c1c(OC/C(=N/O)c2ccc(F)cc2)c(-c2ccccc2)oc2ccccc12 | 2100 | 5.678
C/C(COc1c(-c2ccccc2)oc2ccccc2c1=O)=N\O | 2000 | 5.699
CO/N=C(\C)COc1c(-c2ccccc2)oc2ccccc2c1=O | 2000 | 5.699
CO/N=C(\C)COc1ccc2oc(-c3ccccc3)cc(=O)c2c1 | 900 | 6.046
CO/N=C(\C)COc1ccc2c(=O)cc(-c3ccccc3)oc2c1 | 2200 | 5.658
C/C(COc1ccc2oc(-c3ccccc3)cc(=O)c2c1)=N\O | 1200 | 5.921
C/C(COc1ccc2c(=O)c(-c3ccccc3)coc2c1)=N\O | 9800 | 5.009
O=c1cc(-c2ccccc2)oc2ccc(OC/C(=N/O)c3ccccc3)cc12 | 800 | 6.097
O=c1cc(-c2ccccc2)oc2ccc(OC/C(=N/O)c3ccc(F)cc3)cc12 | 1600 | 5.796
O=c1cc(-c2ccccc2)oc2cc(OC/C(=N/O)c3ccccc3)ccc12 | 2000 | 5.699
CO/N=C(/COc1c(-c2ccccc2)oc2ccccc2c1=O)c1ccc(F)cc1 | 2000 | 5.699
CO/N=C(/COc1c(-c2ccccc2)oc2ccccc2c1=O)c1ccc(OC)cc1 | 2000 | 5.699
CO/N=C(/COc1ccc2oc(-c3ccccc3)cc(=O)c2c1)c1ccc(F)cc1 | 2300 | 5.638

SMILES | GC50 [nM] | pGC50
O=c1cc(-c2ccccc2)oc2cc(OC/C(=N/O)c3ccc(F)cc3)ccc12 | 2000 | 5.699
CO/N=C(/COc1ccc2c(=O)c(-c3ccccc3)coc2c1)c1ccccc1 | 8200 | 5.086
COc1ccc(/C(COc2ccc3c(=O)cc(-c4ccccc4)oc3c2)=N\O)cc1 | 2000 | 5.699
O=c1c(-c2ccccc2)coc2cc(OC/C(=N/O)c3ccccc3)ccc12 | 9000 | 5.046
CO/N=C(/COc1c(-c2ccccc2)oc2ccccc2c1=O)c1ccccc1 | 1600 | 5.796
CO/N=C(/COc1ccc2c(=O)cc(-c3ccccc3)oc2c1)c1ccccc1 | 6600 | 5.18
CO/N=C(/COc1ccc2c(=O)cc(-c3ccccc3)oc2c1)c1ccc(F)cc1 | 2700 | 5.569
CO/N=C(/COc1ccc2c(=O)cc(-c3ccccc3)oc2c1)c1ccc(OC)cc1 | 2500 | 5.602
CO/N=C(/COc1ccc2c(=O)c(-c3ccccc3)coc2c1)c1ccc(F)cc1 | 6400 | 5.194
CO/N=C(/COc1ccc2c(=O)c(-c3ccccc3)coc2c1)c1ccc(OC)cc1 | 7300 | 5.137
O=c1c(-c2ccccc2)coc2cc(OC/C(=N/O)c3ccc(F)cc3)ccc12 | 7800 | 5.108
C/C(COc1ccc2c(=O)cc(-c3ccccc3)oc2c1)=N\O | 2000 | 5.699
COc1ccc(/C(COc2ccc3oc(-c4ccccc4)cc(=O)c3c2)=N\O)cc1 | 1000 | 6
CO/N=C(/COc1ccc2oc(-c3ccccc3)cc(=O)c2c1)c1ccccc1 | 2400 | 5.62
COc1ccc(/C(COc2ccc3c(=O)c(-c4ccccc4)coc3c2)=N\O)cc1 | 7600 | 5.119
COc1ccc(/C(COc2c(-c3ccccc3)oc3ccccc3c2=O)=N\O)cc1 | 2000 | 5.699
